Measured values from publication PMC3272328 (2011).
Changes are numbered by the printed parent chain.

Legend:
Assay type in all cases: biochemical
[1] = target: T1, soluble guanylyl cyclase (Bos taurus, UniProt P16068+P19687); assay: cGMP production by ELISA at varied GTP
T1 sequence (P16068 1-619): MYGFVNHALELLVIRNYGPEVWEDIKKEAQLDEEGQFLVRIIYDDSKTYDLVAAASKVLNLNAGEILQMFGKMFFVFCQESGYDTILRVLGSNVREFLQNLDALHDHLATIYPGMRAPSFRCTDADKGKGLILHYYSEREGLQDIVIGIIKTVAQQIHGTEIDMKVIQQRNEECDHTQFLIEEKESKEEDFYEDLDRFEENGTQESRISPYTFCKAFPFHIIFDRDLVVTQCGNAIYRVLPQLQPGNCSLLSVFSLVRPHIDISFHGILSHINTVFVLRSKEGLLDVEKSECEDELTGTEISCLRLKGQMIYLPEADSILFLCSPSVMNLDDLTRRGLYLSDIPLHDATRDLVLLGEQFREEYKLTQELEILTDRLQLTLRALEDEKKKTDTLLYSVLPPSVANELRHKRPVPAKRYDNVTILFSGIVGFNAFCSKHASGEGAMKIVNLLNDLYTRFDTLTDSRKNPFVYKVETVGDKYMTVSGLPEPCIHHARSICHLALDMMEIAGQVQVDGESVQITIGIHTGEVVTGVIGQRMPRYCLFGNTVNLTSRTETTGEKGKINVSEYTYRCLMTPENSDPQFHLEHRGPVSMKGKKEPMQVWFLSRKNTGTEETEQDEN
T1 sequence (P19687 1-691): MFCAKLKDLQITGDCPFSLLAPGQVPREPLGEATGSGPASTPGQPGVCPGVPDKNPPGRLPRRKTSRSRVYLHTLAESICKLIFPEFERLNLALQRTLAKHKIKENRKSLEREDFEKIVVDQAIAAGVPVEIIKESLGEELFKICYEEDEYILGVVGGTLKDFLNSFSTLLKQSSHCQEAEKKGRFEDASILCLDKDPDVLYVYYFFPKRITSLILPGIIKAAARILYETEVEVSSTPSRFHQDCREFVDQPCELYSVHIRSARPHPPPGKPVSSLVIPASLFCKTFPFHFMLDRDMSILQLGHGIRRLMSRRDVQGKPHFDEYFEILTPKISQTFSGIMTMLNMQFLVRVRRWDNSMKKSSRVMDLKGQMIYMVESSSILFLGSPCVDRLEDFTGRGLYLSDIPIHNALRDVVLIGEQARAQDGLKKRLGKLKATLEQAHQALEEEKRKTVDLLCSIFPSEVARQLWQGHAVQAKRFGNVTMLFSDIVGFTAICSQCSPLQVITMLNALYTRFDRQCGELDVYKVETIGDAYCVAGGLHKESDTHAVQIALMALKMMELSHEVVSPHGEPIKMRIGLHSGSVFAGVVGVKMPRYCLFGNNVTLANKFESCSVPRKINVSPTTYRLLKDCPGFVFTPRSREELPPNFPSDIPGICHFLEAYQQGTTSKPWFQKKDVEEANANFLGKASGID

[2] = target: T2, soluble guanylyl cyclase (Homo sapiens, UniProt Q02108+Q02153); assay: cGMP ELISA enzyme assay
T2 sequence (Q02153 1-619): T1 sequence (P16068 1-619) with D126E, S290L, T574S, E615K, E618D, N619D
T2 sequence (Q02108 1-690): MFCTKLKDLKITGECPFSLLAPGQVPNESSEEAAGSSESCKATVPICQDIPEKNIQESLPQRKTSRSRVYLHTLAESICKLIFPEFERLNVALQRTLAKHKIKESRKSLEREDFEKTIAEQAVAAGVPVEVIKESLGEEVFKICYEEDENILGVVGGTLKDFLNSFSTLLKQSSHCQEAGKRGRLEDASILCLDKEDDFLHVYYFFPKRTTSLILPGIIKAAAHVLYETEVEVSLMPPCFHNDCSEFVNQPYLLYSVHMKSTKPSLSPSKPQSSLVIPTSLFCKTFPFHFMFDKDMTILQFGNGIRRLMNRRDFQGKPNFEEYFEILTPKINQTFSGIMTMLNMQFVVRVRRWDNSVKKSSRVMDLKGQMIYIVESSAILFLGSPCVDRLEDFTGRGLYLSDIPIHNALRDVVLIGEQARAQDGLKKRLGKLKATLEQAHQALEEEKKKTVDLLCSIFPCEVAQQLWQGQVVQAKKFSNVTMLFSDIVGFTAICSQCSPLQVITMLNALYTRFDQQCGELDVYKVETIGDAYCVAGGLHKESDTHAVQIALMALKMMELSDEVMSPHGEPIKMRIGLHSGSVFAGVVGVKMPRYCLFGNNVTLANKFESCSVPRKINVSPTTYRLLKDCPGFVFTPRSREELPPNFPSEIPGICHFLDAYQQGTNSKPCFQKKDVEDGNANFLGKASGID

[3] = target: T1, soluble guanylyl cyclase; assay: cGMP ELISA enzyme assay

SMILES	cGMP production by ELISA at varied GTP; Lineweaver-Burk plot [1]	cGMP ELISA enzyme assay [2]	Ki [3] [µM]
Nc1nc2c(ncn2[C@@H]2O[C@H](COP(=O)(O)OP(=O)(O)OP(=O)(O)O)[C@@H](O)[C@H]2O)c(=O)[nH]1 [guanosine triphosphate]	we measured the amount of inhibition while varying the concentrations of GTP and carbovir triphosphate	–	–
Nc1nc(=O)c2ncn([C@H]3C=C[C@@H](COP(=O)(O)OP(=O)(O)OP(=O)(O)O)C3)c2[nH]1 [carbovir triphosphate]	–	able to inhibit the activity of purified soluble guanylyl cyclase (both purified native bovine enzyme and recombinant human enzyme)	55
